Here are results for nine molecules from patent US20230165965A1, “NEW COUMARIN-POLYMER CONJUGATES AND USES THEREOF” (Onyel Biotech S.r.l., priority 2020, published 2023).

Read-outs that look alike come from different tables or passages of the source.

The nature of data set [1]: Atomic force measurement (AFM) of hydrogel Young's modulus. The format is physicochemical. To be noted: 1-photon UV mediated cycloaddition. The protocol: With the aim to provide glass surface HCCA-groups for covalent bonding HCC-branched polymers solutions were drop-cast onto glass coverslip previously functionalized with HCCA- as described in Section 10. HCC-4arm PEG and HCC-8arm PEG were dissolved in PBS (300 mg/mL) at room temperature under agitation. HCC-Gel was dissolved in PBS (100 mg/mL) under agitation at 60° C. for 10 min. When coverslips were used, a second coverslip was placed on top of the drop of HCC-polymeric solutions to limit water evaporation during the irradiation process. […] Laser power is measured before objective back aperture, corresponding to about 1% of the power on the sample plane. […]
For crosslinking reaction analysis, 5 μL CMMC-4 arm PEG (300 mg/mL) or CMMC-Gel (100 mg/mL) solution was located in a humid chamber at 3 cm from a 365 nm UV LED Gen 2 Emitter LZ4-04UV00 (Led Engin) and irradiated for different minutes as reported. When CMMC-Gel solution was analysed at different concentrations (100 mg/mL, 120 mg/mL, 140 mg/mL, 160 mg/mL, 180 mg/mL and 200 mg/mL), 5 μL of solution was located in a humid chamber at 3 cm from a 365 nm UV LED Gen 2 Emitter LZ4-04UV00 (Led Engin) and irradiated for 3 minutes. […]
The Young's modulus was calculated applying a fit of the Hertz model to the force curve, assuming a Poisson ratio of 0.5. […]

Data set [2] relates to Murine muscle-derived stem cells (MuSC). The protocol: Cells were expanded for 1 passage at 37° C. in cell incubator, using proliferating medium composed by DMEM supplemented with 20% horse serum, 10% fetal bovine serum (Gibco), 1% chicken embryo extract (Sera Laboratories International), bFGF ([…], Invitrogen #PHG0264) and 1% Pen/Strep (Thermofisher). […] Samples were cultured in proliferating media and analyzed 2 days after 3D bioprinting (cell directionality was quantified as reported above). […] After 5 days of culture in proliferating medium, differentiation medium (DMEM supplemented with 2% horse serum and 1% Pen/Strep) was used for the following 5 days of cell culture. After 10 days, samples were fixed in 4% (w/v) paraformaldehyde (PFA, Sigma-Aldrich) in PBS for 7 min at room temperature and maintained at 4° C. in PBS until use.
(§1) ImageJ software were used for adjustments of levels and contrast, maximum and standard deviation intensity projections, 3D reconstructions and thresholding to create binary mask used for directionality and ferret angle measurements. To quantify the directionality of i3D bioprinted cells, at least 9 fluorescence images of independent biological triplicates for each sample were converted in binary masks, then analyzed with directionality plugin of ImageJ software (that indicates the amount of structures in a given direction). To quantify the shape of enclosed hSIOs, at least 9 fluorescence images of independent biological triplicates for each sample were converted in binary masks, then analyzed with measure plugin of ImageJ software to quantify the Feret's angle (the angle between the longest distance of the axis of any two points along the selection boundary (Feret's diameter) and a line parallel to the x-axis of the image).

The subject of data set [3] is human small intestinal organoids (hSIOs). The format is cell-based. To be noted: open square-box hydrogel, up to 8 days of culture.
Excerpt: as §1

The test system of a further data set is mCherry+FBs. To be noted: for organization of donor mCherry+FBs: under epimysium, 21 days. The protocol: (§2) Mice were anaesthetized using i.p. injection of Zoletil® 50/50 (40 mg/kg) and Rompun® 2% Xilazina (5 mg/kg) in physiologic solution. Induction of deep surgical anaesthesia was confirmed by absence of reaction to hind foot pinch. The surgical procedure underwent in aseptic conditions (skin preparation, sterilized instruments, gloves and drapes). […] For blood flow analysis, Rhodamine B isothiocyanate-Dextran (Sigma, R9379) was injected in tail vein at 50 mg/mL in physiologic solution. When required, skin wound was closed with Vicryl 6-0 suture and no movement or space restriction were applied to animals after treatments. At the required time point, animals were deeply anesthetized, subjected to stereomicroscope and/or 2P intravital imaging, then sacrificed for tissues collection.

The test system of a further data set is skeletal muscle. To be noted: GFP+MuSC/mCherry+FB-laden, i3D bioprinted. The protocol:
as §2
ImageJ software were used for adjustments of levels and contrast, maximum and standard deviation intensity projections, 3D reconstructions and thresholding to create binary mask used for directionality and ferret angle measurements. To quantify the directionality of i3D bioprinted cells, at least 9 fluorescence images of independent biological triplicates for each sample were converted in binary masks, then analyzed with directionality plugin of ImageJ software (that indicates the amount of structures in a given direction). […]

A further data set deals with HUVEC cells. To be noted: seeded on hydrogels.
The next data set relates to Fibroblasts (FBs). To be noted: ΔZ up to 150 μm, interspace down to 10 μm.
Data set [4] in a line: Single-photon absorption spectra analysis of coumarin derivatives. The format is physicochemical. The protocol: Table 1, below, reports the absorbance spectra analysis of selected coumarin derivatives dissolved in PBS at pH 7.4, the maximum single photon absorption wavelengths in specific solvents are indicated.
Selected coumarin derivatives were dissolved in DMSO at a concentration of 5 mg/ml and diluted 1:500 in PBS, pH 7.4. The absorption spectra were recorded on an Evolution 201 UV-Vis spectrophotometer (Thermo Fisher Scientific, Waltham, Mass., USA) in the wavelength range of 250-450 nm.

Experimental for Fibroblasts (FBs): For 3D cell laden culture, 10^4 cells were seeded into Matrigel, or Matrigel or CMMC-Gel exposed to UV light for 3 minutes at an irradiation distance of 3 millimeters, located in a 24 multiwell culture dish, cultured for 2 days at 37° C. and 5% CO2 in cell incubator before performing cell viability assay as described above. […] 2P-cell laden constructs were analyzed by imaging or AFM as described above.
Experimental for HUVEC cells: HUVEC were transduced with a lentiviral vector encoding for eGFP (3) and cultured in Endothelial Growth Media (EGM, Lonza). […] After culture, cells were fixed in 4% (w/v) paraformaldehyde (PFA, Sigma-Aldrich) in PBS for 7 min at room temperature and maintained at 4° C. in PBS until use. […] After culture, cells were fixed in 4% (w/v) paraformaldehyde (PFA, Sigma-Aldrich) in PBS for 7 min at room temperature and maintained at 4° C. in PBS until use.

In the case of “7-(carboxymethoxy)-4-methylcoumarin-gelatin [CMMC-Gel]”, in data set [1], the “elastic modulus with increasing irradiation time” value was “increases to asymptotic values”.

Turning to “7-hydroxycoumarin-3-carboxamide-gelatin [HCC-Gel]”, the “cell directionality of MuSC” value in data set [2] (cuboid-shaped structures) is given as “randomly oriented”; in data set [2] (elongated-shaped structures), “oriented along major axis of the 3D structures”. In data set [2] (parallelepiped-shaped structures, 10 days of culture), the myotube formation result is “support the formation of aligned multinucleated myotubes”. For the same molecule, in data set [3], the “columnar epithelium of enclosed hSIOs” value is “well-developed columnar epithelium”. For the same molecule, the “localization of donor mCherry+FBs” value in the data set on mCherry+FBs (intra-dermal injection and i3D bioprinting across epidermis, 14 days) is reported as “Elongated localization”. Besides, the entries for the “organization of donor mCherry+FBs” value in the data set with mCherry+FBs (i3D bioprinted parallelepiped-shaped constructs) and with mCherry+FBs (injected only (no i3D bioprinting)) were “elongated clusters” and “rounded clusters”, respectively. Also, the “de novo skeletal muscle tissue formation” value in the data set on skeletal muscle (7 days) is “supports de novo skeletal muscle tissue formation”. For the same molecule, in the data set with skeletal muscle (one week), the “organization of donor GFP cells” value is “confined bundle of elongated GFP cells”. Besides, the “adhesion and culture of HUVEC cells” value in the data set on HUVEC cells was “supported adhesion and culture”. Further, the “adhesion of GFP FBs to parallelepiped-shaped hydrogels” value in the data set with Fibroblasts (FBs) is “efficiently adhere”.

As for `Cc1c(CC(=O)O)c(=O)oc2cc(N)ccc12` [7-Amino-4-methyl-3-coumarinylacetic acid], the “Abs λ” value in data set [4] (Solvent: Methanol) is given as 340 nm.

Regarding `Cc1cc(=O)oc2cc(OCC(=O)O)ccc12` [7-Carboxymethoxy-4-methylcoumarin], the “Abs λ” value in data set [4] (Solvent: Ethanol) worked out at 321 nm.

Turning to `O=c1cc(C(F)(F)F)c2ccc(O)cc2o1` [7-Hydroxy-4-(trifluoromethyl)coumarin], the “Abs λ” value in data set [4] (Solvent: Ethanol) is reported as 383 nm.

As for `Cc1cc(=O)oc2cc(O)ccc12` [7-Hydroxy-4-methylcoumarin], in data set [4] (Solvent: 95% Ethanol), the “Abs λ” value turned out to be 322 nm.

On to `O=C(ON1C(=O)CCC1=O)c1cc2ccc(O)cc2oc1=O` [7-Hydroxycoumarin-3-carboxylic acid N-succinimidyl ester], for which, in data set [4] (solvent not given), the “Abs λ” value was found to be 413 nm.

As for `O=c1ccc2ccc(O)cc2o1` [7-Hydroxycoumarin], in data set [4] (Solvent: 95% Ethanol), the “Abs λ” value came to 325 nm.

Take `CCOC(=O)c1cc2ccc(O)cc2oc1=O` [Ethyl 7-Hydroxycoumarin-3-carboxylate]: in data set [4] (Solvent: Ethanol), the “Abs λ” value stood at 403 nm.
